Assay results: patent publication US20250154154A1 (Relay Binney Street, 2nd Floor, priority 2020, published 2025)

Key:
SRC = SRC (Homo sapiens, UniProt P12931); test: SRC Biochemical Assay Protocol (microfluidic mobility shift assay, FLPeptide4 substrate)
In short: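 Mobility-shift readout of phosphorylated FLPeptide4 (1.5 μM) after 90 min kinase reaction with 50 μM ATP and 0.26 nM SRC in pH 7.4 HEPES buffer. Compounds, tested 0.0017–100 μM, were preincubated 30 min with enzyme and peptide; IC50 from 4-parameter logistic fit versus neutral controls.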

RBE cells = test: Cell Viability Protocol (CellTiterGlo), RBE cells; type: cell-based; conditions: RBE or SNU-1079 cells, 72 or 120 hour, cell line and time not given
Protocol: RBE or SNU-1079 cells were cultured in T-75 or T-175 flasks at 37° C., 5% CO2, 95% relative humidity in RPMI 1640 medium with 10% FBS and 1% Penicillin/Streptomycin (media) and detached with 0.25% trypsin/EDTA at 80-90% confluency. Cells were then seeded in 40 μL media per well in 384-well flat-bottom polystyrene microplates (Corning Cat. No. 3570) at a seeding density of 1200 cells/well and incubated for 24 hours at 37° C. with 5% CO2, 95% relative humidity. On the next day, test compounds were prepared in 10 mM DMSO stock solution and diluted to the indicated concentrations in a 384-well compound source plate. DMSO was employed as a vehicle control. Compounds (40 nL) were transferred to 384-well cell culture plate(s) using the liquid handler Echo550. Plates were incubated at 37° C. with 5% CO2 for 72 hour or 120 hour (as indicated). CellTiterGlo reagent was warmed to 37° C. and added into each well (40 μL per well). Plates were incubated at room temperature for 30 min followed by reading on the EnSpire or EnVision plate reader. Relative viability (% remaining activity) was calculated relative to DMSO control and IC50 values were obtained from dose-response data fitted to a 4-parameter curve.

[1] = tested on: phospho-S6RP (Ser 235/236) in RBE cells; test: Cellular Proliferation Protocol (cellular phospho-S6RP HTRF), RBE cells; type: cell-based; conditions: 6 hours treatment, RBE or SNU-1079 cells, cell line not given
Protocol: Cellular Proliferation Protocol
Cellular phospho-S6RP (Ser 235/236) was measured using a Fluorescence Resonance Energy Transfer (FRET) sandwich assay format (Cisbio HTRF Cat. No. 64RP6PEG). This format uses 2 different, labelled antibodies (Eu^3+-Cryptate donor and d2 acceptor) that positively modulate a specific signal in proportion to phospho-S6RP (Ser 235/236) directly in cells. RBE or SNU-1079 cells were cultivated in T-75 flasks at 37° C., 5% CO2, 95% relative humidity in RPMI 1640 medium with 10% FBS and 1% Penicillin/Streptomycin and detached with trypsin/EDTA at 80-90% confluency. Cells were then seeded in 40 μL volume per well in 384-well flat-bottom polystyrene microplates (Corning Cat. No. 3570) at a seeding density of 2000 cells/well for RBE and 3000 cells/well for SNU-1079 followed by 24 hour incubation at 37° C., 5% CO2, 95% relative humidity. On the next day, compounds were diluted to […] the indicated concentrations and 40 nL of these treatment compounds, along with DMSO vehicle control, were added to the cells (final concentration of compounds is then the indicated concentrations). Treatment was carried out for 6 hours at 37° C., 5% CO2, 95% relative humidity after which the plates were cooled to room temperature before aspirating the medium. Cells were then lysed on a shaker for 45 minutes at room temperature with 20 μL of 1× supplemented lysis buffer per well. After lysis, 5 μL of pre-mixed antibodies was added per well. Plates were covered with black sealing film and incubated overnight at room temperature on a shaker before being read on a PerkinElmer EnVision microplate reader. Percent activation was calculated relative to DMSO control and IC50 values were obtained from dose-response data fitted to a 4-parameter curve.

SRC, sequence (P12931 whole entry, species assumed): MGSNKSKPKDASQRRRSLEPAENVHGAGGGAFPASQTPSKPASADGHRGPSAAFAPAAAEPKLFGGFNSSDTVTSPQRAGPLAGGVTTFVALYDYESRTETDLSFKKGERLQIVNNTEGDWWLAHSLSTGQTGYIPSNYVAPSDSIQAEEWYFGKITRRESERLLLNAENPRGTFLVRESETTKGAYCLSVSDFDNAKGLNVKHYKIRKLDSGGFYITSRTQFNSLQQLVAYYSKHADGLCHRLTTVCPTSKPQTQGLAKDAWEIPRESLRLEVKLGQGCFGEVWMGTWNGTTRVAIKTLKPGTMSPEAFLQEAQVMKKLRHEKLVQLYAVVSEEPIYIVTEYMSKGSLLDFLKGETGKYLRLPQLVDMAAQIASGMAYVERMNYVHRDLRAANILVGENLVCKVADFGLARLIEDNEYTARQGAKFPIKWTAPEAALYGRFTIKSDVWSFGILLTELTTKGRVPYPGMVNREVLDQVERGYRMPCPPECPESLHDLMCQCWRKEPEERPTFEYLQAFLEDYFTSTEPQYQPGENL

| Compound | IC50 (SRC) | IC50 (RBE cells) | IC50 [1] |
| --- | --- | --- | --- |
| C=CC(=O)N1CC2C(C#Cc3c(-c4ccc(Cl)c5c4OCO5)c4c(N)ncnc4n3C)C2C1 (centres unmarked) [II-127] | ≤ 10 nM | 10 to 1000 nM | 10 to 1000 nM |
| C=CC(=O)N1C[C@@H]2[C@@H](C#Cc3c(-c4ccc(Cl)c(OC)n4)c4c(N)ncnc4n3C(C)C)[C@@H]2C1 [II-62] | ≤ 10 nM | 10 to 1000 nM | 10 to 1000 nM |
| CC(C)n1c(C#CC2CN(C(=O)CCl)C2)c(-c2ccc(Oc3ccccc3)cc2)c2c(N)ncnc21 [Example I-6] | ≤ 10 nM | 10 to 1000 nM |  |
| CC(C)n1c(C#CC2CCN(C(=O)/C=C/CN(C)C)CC2)c(-c2ccc(Oc3ccccc3)cc2)c2c(N)ncnc21 [Example I-48, (E)-1-(4-((4-amino-7-isopropyl-5-(4-phenoxyphenyl)-7H-pyrrolo[2,3-d]pyrimidin-6-yl)ethynyl)piperidin-1-yl)-4-(dimethylamino)but-2-en-1-one] | 10 to 1000 nM | 10 to 1000 nM |  |
| CC(C)N1CCC(C#Cc2c(-c3ccc(Oc4ccccc4)cc3)c3c(N)ncnc3n2C(C)C)CC1 [II-142, 7-isopropyl-6-((1-isopropylpiperidin-4-yl)ethynyl)-5-(4-phenoxyphenyl)-7H-pyrrolo[2,3-d]pyrimidin-4-amine] | ≤ 10 nM | 10 to 1000 nM |  |
| C=CC(=O)NCC#Cc1c(-c2ccc(Oc3ccccc3)cc2)c2c(N)ncnc2n1C [II-162, N-(3-(4-amino-7-methyl-5-(4-phenoxyphenyl)-7H-pyrrolo[2,3-d]pyrimidin-6-yl)prop-2-yn-1-yl)acrylamide] | 10 to 1000 nM | 10 to 1000 nM |  |
| C=CC(=O)N1CCC(O)(C#Cc2c(-c3ccc(Oc4ccccc4)cc3)c3c(N)ncnc3n2C2CCOC2)CC1 (centres unmarked) [Example I-70] | ≤ 10 nM | ≤ 10 nM |  |
| CC(C)n1c(C#CC2CCN(S(C)(=O)=O)CC2)c(-c2ccc(Oc3ccccc3)cc2)c2c(N)ncnc21 [II-140, 7-isopropyl-6-((1-(methylsulfonyl)piperidin-4-yl)ethynyl)-5-(4-phenoxyphenyl)-7H-pyrrolo[2,3-d]pyrimidin-4-amine] | 10 to 1000 nM | 10 to 1000 nM |  |
| C=CC(=O)N1CCC(C#Cc2c(-c3ccc(Oc4ccccc4)cc3)c3c(N)ncnc3n2C2CCCNC2)CC1 (centres unmarked) [Example I-60] | 10 to 1000 nM | 10 to 1000 nM |  |
| C=CC(=O)N1CCC(C#Cc2c(-c3ccc(Oc4ccccc4)cc3)c3c(N)ncnc3n2C(C)C)CC1 [Example I-8, 1-(4-((4-amino-7-isopropyl-5-(4-phenoxyphenyl)-7H-pyrrolo[2,3-d]pyrimidin-6-yl)ethynyl)piperidin-1-yl)prop-2-en-1-one] | 10 to 1000 nM | 10 to 1000 nM |  |
| C=CC(=O)NC1CC(C#Cc2c(-c3ccc(Oc4ccccc4)cc3)c3c(N)ncnc3n2C2CCOC2)C1 (centres unmarked) [Example I-71] | 10 to 1000 nM | ≤ 10 nM |  |
| C=CC(=O)N1CCC(C#Cc2c(-c3ccc(Oc4ccccc4)cc3)c3c(N)ncnc3n2C2CCOCC2)CC1 [Example I-41, 1-(4-((4-amino-5-(4-phenoxyphenyl)-7-(tetrahydro-2H-pyran-4-yl)-7H-pyrrolo[2,3-d]pyrimidin-6-yl)ethynyl)piperidin-1-yl)prop-2-en-1-one] | 10 to 1000 nM | 10 to 1000 nM |  |
| COCCN(C)C/C=C/C(=O)N1C[C@@H]2[C@@H](C#Cc3c(-c4ccc(Oc5ccccc5)cc4)c4c(N)ncnc4n3C)[C@@H]2C1 [II-224, (E)-1-((1R,5S,6s)-6-((4-amino-7-methyl-5-(4-phenoxyphenyl)-7H-pyrrolo[2,3-d]pyrimidin-6-yl)ethynyl)-3-azabicyclo[3.1.0]hexan-3-yl)-4-((2-methoxyethyl) (methyl)amino)but-2-en-1-one] | 10 to 1000 nM | 10 to 1000 nM |  |
| CN(C)C/C=C/C(=O)N1C[C@@H]2[C@@H](C#Cc3c(-c4ccc(Oc5cccc(F)c5)cc4)c4c(N)ncnc4n3C)[C@@H]2C1 [II-43] | 10 to 1000 nM | ≤ 10 nM |  |
| C=CC(=O)N1CCC(O)(C#Cc2c(-c3ccc(Oc4ccccc4)cc3)c3c(N)ncnc3n2C)CC1 [Example I-63] | 10 to 1000 nM | 10 to 1000 nM |  |

More lines, main results first:

| IC50 (SRC) | Compound | IC50 (RBE cells) | IC50 [1] |
| --- | --- | --- | --- |
| 1000 to 10000 nM | C=CC(=O)N1CCC(N2CC(C#Cc3c(-c4ccc(Oc5cccc(C)n5)c(OC)c4)c4c(N)nccc4n3C)C2)CC1 [II-80] | 10 to 1000 nM | 1000 to 10000 nM |
| 10 to 1000 nM | C=CC(=O)N1CCC(N2CC(C#Cc3c(-c4ccc(Cl)c(F)c4)c4c(N)ncnc4n3C)C2)CC1 [II-96] | 10 to 1000 nM | 10 to 1000 nM |
| 10 to 1000 nM | C=CC(=O)N1CC[C@@H](N2CC(C#Cc3c(-c4ccc(Oc5nccs5)cc4)c4c(N)ncnc4n3C)C2)[C@@H](O)C1 [II-21] | 10 to 1000 nM | 10 to 1000 nM |
| ≤ 10 nM | C=CC(=O)N1CC[C@H](N2CC(C#Cc3c(-c4ccc(Cl)c(OC)c4)c4c(N)ncnc4n3C)C2)[C@H](O)C1 |  | 10 to 1000 nM |
| 10 to 1000 nM | Cn1c(C#C[C@@H]2[C@H]3CN(C(=O)/C=C/CN4CCC(F)C4)C[C@@H]23)c(-c2ccc(Oc3ccccc3)cc2)c2c(N)ncnc21 (stereo partly drawn) [II-225, (E)-1-((1R,5S,6s)-6-((4-amino-7-methyl-5-(4-phenoxyphenyl)-7H-pyrrolo[2,3-d]pyrimidin-6-yl)ethynyl)-3-azabicyclo[3.1.0]hexan-3-yl)-4-(3-fluoropyrrolidin-1-yl)but-2-en-1-one] | 10 to 1000 nM |  |
| 10 to 1000 nM | COCCN(C)C/C=C/C(=O)N1C[C@@H]2[C@@H](C#Cc3c(-c4ccc(Oc5ccccn5)c(OC)c4)c4c(N)ncnc4n3C)[C@@H]2C1 [II-231, (E)-1-((1R,5S,6s)-6-((4-amino-5-(3-methoxy-4-(pyridin-2-yloxy)phenyl)-7-methyl-7H-pyrrolo[2,3-d]pyrimidin-6-yl)ethynyl)-3-azabicyclo[3.1.0]hexan-3-yl)-4-((2-methoxyethyl) (methyl)amino) but-2-en-1-one] | 10 to 1000 nM |  |
| 10 to 1000 nM | C=CC(=O)N1CCC(C#Cc2c(-c3ccc(Oc4ccccc4F)cc3)c3c(N)ncnc3n2C2CCOC2)CC1 (centres unmarked) [Example I-62] | 10 to 1000 nM |  |
| 10 to 1000 nM | C=CC(=O)N1CCC(N2CC(C#Cc3c(-c4ccc(Oc5ccccn5)cc4OC)c4c(N)ncnc4n3C)C2)C[C@H]1CO (stereo partly drawn) [II-245, 1-((2S)-4-(3-((4-amino-5-(2-methoxy-4-(pyridin-2-yloxy)phenyl)-7-methyl-7H-pyrrolo[2,3-d]pyrimidin-6-yl)ethynyl)azetidin-1-yl)-2-(hydroxymethyl)piperidin-1-yl)prop-2-en-1-one] | 10 to 1000 nM |  |
| 10 to 1000 nM | COCCN(C)C/C=C/C(=O)N1C[C@@H]2[C@@H](C#Cc3c(-c4ccc(Oc5cccc(C)n5)cc4OC)c4c(N)ncnc4n3C)[C@@H]2C1 [II-235, (E)-1-((1R,5S,6s)-6-((4-amino-5-(2-methoxy-4-((6-methylpyridin-2-yl)oxy)phenyl)-7-methyl-7H-pyrrolo[2,3-d]pyrimidin-6-yl)ethynyl)-3-azabicyclo[3.1.0]hexan-3-yl)-4-((2-methoxyethyl) (methyl)amino)but-2-en-1-one] | 1000 to 10000 nM |  |
| 10 to 1000 nM | C=CC(=O)N1CCC(C#Cc2c(-c3ccc(Oc4ccccc4)cc3)c3c(N)ncnc3n2C2CC(O)C2)CC1 (centres unmarked) [Example I-69] | 10 to 1000 nM |  |
| 10 to 1000 nM | C=CC(=O)N1CCC(N2CC(C#Cc3c(-c4ccc(Oc5cccc(C)n5)c(OC)c4)c4c(N)ncnc4n3C)C2)C[C@H]1CO (stereo partly drawn) [II-242, 1-((2S)-4-(3-((4-amino-5-(3-methoxy-4-(6-methylpyridin-2-yloxy)phenyl)-7-methyl-7H-pyrrolo[2,3-d]pyrimidin-6-yl)ethynyl)azetidin-1-yl)-2-(hydroxymethyl)piperidin-1-yl)prop-2-en-1-one] | 10 to 1000 nM |  |
| 10 to 1000 nM | Cc1cccc(Oc2ccc(-c3c(C#C[C@@H]4[C@H]5CN(C(=O)/C=C/CN(C)C)C[C@@H]45)n(C)c4ncnc(N)c34)cc2)n1 [II-46] | 10 to 1000 nM |  |
